US12612360B2 (Sanofi, priority 2020, dated 2026)

Target: T1, ERα (Homo sapiens, UniProt P03372)
T1 construct: host or cells: MCF7
T1 sequence (P03372 1-595): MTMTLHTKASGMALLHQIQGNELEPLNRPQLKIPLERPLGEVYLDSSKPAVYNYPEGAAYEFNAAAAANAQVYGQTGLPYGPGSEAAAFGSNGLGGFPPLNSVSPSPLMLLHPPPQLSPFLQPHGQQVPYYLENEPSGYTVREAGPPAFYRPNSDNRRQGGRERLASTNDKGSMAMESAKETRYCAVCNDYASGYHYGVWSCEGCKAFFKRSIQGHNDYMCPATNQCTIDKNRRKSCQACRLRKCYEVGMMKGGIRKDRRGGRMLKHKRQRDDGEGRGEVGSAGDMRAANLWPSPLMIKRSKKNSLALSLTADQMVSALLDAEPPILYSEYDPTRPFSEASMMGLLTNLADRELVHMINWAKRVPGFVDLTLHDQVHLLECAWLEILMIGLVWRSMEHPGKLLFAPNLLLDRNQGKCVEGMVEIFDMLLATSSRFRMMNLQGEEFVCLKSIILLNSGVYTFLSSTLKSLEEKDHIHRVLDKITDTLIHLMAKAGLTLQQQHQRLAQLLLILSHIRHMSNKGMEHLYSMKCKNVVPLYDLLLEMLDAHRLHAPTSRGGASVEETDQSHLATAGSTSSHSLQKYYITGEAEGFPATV
Assay: Estrogen receptor degradation activity: breast cancer cell ERα in cell western assay (MCF7 cells)
Type: cell-based
Details: for % Degradation At 0.3 μM: 4 hours, relative to fulvestrant 0.1 μM positive control; for DC50: 4 hours post compound addition, concentration which degrades 50% of the estrogen receptor, read-out: Degradation IC50
In short: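 In-cell western readout: ERα immunofluorescence (Alexa 488) normalised to DNA signal (Syto-64) after formalin fixation. Compounds dosed for 4 h on MCF7 cells in stripped-serum, phenol-red-free medium over nine 1:5 steps, 0.3 to […] final; fulvestrant 0.1 μM control. IC50 in nM for 50% ERα degradation.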

SMILES | % Degradation At 0.3 μM [%] | DC50 [nM]
CCc1ccccc1C1=C(c2ccc(C=C3CN(CCCF)C3)cc2)c2ccc(C(=O)O)cc2CCC1 [Example 86, 8-(2-ethylphenyl)-9-(4-((1-(3-fluoropropyl)azetidin-3-ylidene)methyl)phenyl)-6,7-dihydro-5H-benzo[7]annulene-3-carboxylic acid] | 92 | 0.2
O=C(O)c1ccc2c(c1)CCCC(c1ccc(F)c(C(F)(F)F)c1)=C2c1ccc(C=C2CN(CCCF)C2)cc1 [Example 154, 8-(4-fluoro-3-(trifluoromethyl)phenyl)-9-(4-((1-(3-fluoropropyl)azetidin-3-ylidene)methyl)phenyl)-6,7-dihydro-5H-benzo[7]annulene-3-carboxylic acid] | 92 | 0.4
Cc1cc(C=C2CN(CCCF)C2)cc(F)c1C1=C(c2ccc(F)cc2F)CCCc2cc(C(=O)O)ccc21 [Example 31, 8-(2,4-difluorophenyl)-9-(2-fluoro-4-((1-(3-fluoropropyl)azetidin-3-ylidene)methyl)-6-methylphenyl)-6,7-dihydro-5H-benzo[7]annulene-3-carboxylic acid] | 92 | 0.8
Cc1cccc(C2=C(c3ccc(C=C4CN(CCC(F)F)C4)cc3)c3ccc(C(=O)O)cc3CCC2)c1Cl [Example 131, 8-(2-chloro-3-methylphenyl)-9-(4-((1-(3,3-difluoropropyl)azetidin-3-ylidene)methyl)phenyl)-6,7-dihydro-5H-benzo[7]annulene-3-carboxylic acid] | 95 | 1.1
Cl.O=C(O)c1ccc2c(c1)CCCC(c1ccc(Cl)cc1Cl)=C2c1cc(F)c(C=C2CN(CCCF)C2)c(F)c1 [Example 105, 8-(2,4-dichlorophenyl)-9-(3,5-difluoro-4-((1-(3-fluoropropyl)azetidin-3-ylidene)methyl)phenyl)-6,7-dihydro-5H-benzo[7]annulene-3-carboxylic acid] | 94 | 0.1
Cc1c(C#N)cccc1C1=C(c2ccc(C=C3CN(CCCF)C3)cc2)c2ccc(C(=O)O)cc2CCC1 [Example 91, 8-(3-cyano-2-methylphenyl)-9-(4-((1-(3-fluoropropyl)azetidin-3-ylidene)methyl)phenyl)-6,7-dihydro-5H-benzo[7]annulene-3-carboxylic acid] | 87 | 0.9
Cc1c(C2=C(c3ccc(C=C4CN(CCC(F)(F)F)C4)cc3)c3ccc(C(=O)O)cc3CCC2)ccc(F)c1F [Example 112, 8-(3,4-difluoro-2-methylphenyl)-9-(4-((1-(3,3,3-trifluoropropyl)azetidin-3-ylidene)methyl)phenyl)-6,7-dihydro-5H-benzo[7]annulene-3-carboxylic acid] | 100 | 27.8
Cc1cccc(C2=C(c3ccc(C=C4CN(CCCF)C4)cc3)c3ccc(C(=O)O)cc3CCC2)c1F [Example 48, 8-(2-fluoro-3-methylphenyl)-9-(4-((1-(3-fluoropropyl)azetidin-3-ylidene)methyl)phenyl)-6,7-dihydro-5H-benzo[7]annulene-3-carboxylic acid] | 95 | 0.3
Cl.O=C(O)c1ccc2c(c1)CCCC(c1ccc(Cl)cc1Cl)=C2c1ccc(C=C2CN(CCCF)C2)c(F)c1F [Example 80, 8-(2,4-dichlorophenyl)-9-(2,3-difluoro-4-((1-(3-fluoropropyl)azetidin-3-ylidene)methyl)phenyl)-6,7-dihydro-5H-benzo[7]annulene-3-carboxylic acid hydrochloride] | 98 | 0.6
Cc1cc(F)ccc1C1=C(c2ccc(C=C3CN(CCC(F)F)C3)cc2)c2ccc(C(=O)O)cc2CCC1 [Example 19, 9-(4-((1-(3,3-difluoropropyl)azetidin-3-ylidene)methyl)phenyl)-8-(4-fluoro-2-methylphenyl)-6,7-dihydro-5H-benzo[7]annulene-3-carboxylic acid] | 93 | 0.2
O=C(O)c1ccc2c(c1)CCCC(c1ccc(Cl)cc1)=C2c1ccc(C=C2CN(CCCF)C2)cc1 [Example 181, 8-(4-chlorophenyl)-9-(4-((1-(3-fluoropropyl)azetidin-3-ylidene)methyl)phenyl)-6,7-dihydro-5H-benzo[7]annulene-3-carboxylic acid] | 91 | 0.5
O=C(O)c1ccc2c(c1)CCCC(c1c(F)cc(F)cc1F)=C2c1ccc(C=C2CN(CCCF)C2)cc1 [Example 33, 9-(4-((1-(3-fluoropropyl)azetidin-3-ylidene)methyl)phenyl)-8-(2,4,6-trifluorophenyl)-6,7-dihydro-5H-benzo[7]annulene-3-carboxylic acid] | 92 | 0.3
Cl.O=C(O)c1ccc2c(c1)CCCC(c1ccc(Cl)cc1Cl)=C2c1ccc(C=C2CN(CCCF)C2)c(F)c1 [Example 103, 8-(2,4-dichlorophenyl)-9-(3-fluoro-4-((1-(3-fluoropropyl)azetidin-3-ylidene)methyl)phenyl)-6,7-dihydro-5H-benzo[7]annulene-3-carboxylic acid hydrochloride] | 92 | 0.2
COc1cc(C2=C(c3ccc(C=C4CN(CCCF)C4)cc3)c3ccc(C(=O)O)cc3CCC2)cc(C(F)(F)F)c1 [Example 150] | 88 | 1.7
Cc1ccc(C2=C(c3ccc(C=C4CN(CCCF)C4)cc3)c3ccc(C(=O)O)cc3CCC2)c(C)c1 [Example 77, 8-(2,4-dimethylphenyl)-9-(4-((1-(3-fluoropropyl)azetidin-3-ylidene)methyl)phenyl)-6,7-dihydro-5H-benzo[7]annulene-3-carboxylic acid] | 92 | 0.4
O=C(O)c1ccc2c(c1)CCCC(c1ncc(Cl)cc1C(F)(F)F)=C2c1ccc(C=C2CN(CCCF)C2)cc1 [Example 35, 8-(5-chloro-3-(trifluoromethyl)pyridin-2-yl)-9-(4-((1-(3-fluoropropyl)azetidin-3-ylidene)methyl)phenyl)-6,7-dihydro-5H-benzo[7]annulene-3-carboxylic acid] | 93 | 0.4
Cc1cc(Cl)ccc1C1=C(c2ccc(C=C3CN(CCCF)C3)cc2)c2ccc(C(=O)O)cc2CCC1 [Example 89, 8-(4-chloro-2-methylphenyl)-9-(4-((1-(3-fluoropropyl)azetidin-3-ylidene)methyl)phenyl)-6,7-dihydro-5H-benzo[7]annulene-3-carboxylic acid] | 98 | 0.2
Cc1cc(C#N)ccc1C1=C(c2ccc(C=C3CN(CCCF)C3)cc2)c2ccc(C(=O)O)cc2CCC1 [Example 84, 8-(4-cyano-2-methylphenyl)-9-(4-((1-(3-fluoropropyl)azetidin-3-ylidene)methyl)phenyl)-6,7-dihydro-5H-benzo[7]annulene-3-carboxylic acid] | 92 | 2.1
O=C(O)c1ccc2c(c1)CCCC(c1ccc(C3CC3)cc1F)=C2c1ccc(C=C2CN(CCCF)C2)cc1 [Example 34, 8-(4-cyclopropyl-2-fluorophenyl)-9-(4-((1-(3-fluoropropyl)azetidin-3-ylidene)methyl)phenyl)-6,7-dihydro-5H-benzo[7]annulene-3-carboxylic acid] | 90 | 0.3
O=C(O)c1ccc2c(c1)CCCC(c1ccc(Cl)c(C(F)(F)F)c1)=C2c1ccc(C=C2CN(CCCF)C2)cc1 [Example 5, 8-(4-chloro-3-(trifluoromethyl)phenyl)-9-(4-((1-(3-fluoropropyl)azetidin-3-ylidene)methyl)phenyl)-6,7-dihydro-5H-benzo[7]annulene-3-carboxylic acid] | 88 | 1
Cc1cc(C=C2CN(CCCF)C2)ccc1C1=C(c2ccc(Cl)cc2Cl)CCCc2cc(C(=O)O)ccc21.Cl [Example 93, 8-(2,4-dichlorophenyl)-9-(4-((1-(3-fluoropropyl)azetidin-3-ylidene)methyl)-2-methylphenyl)-6,7-dihydro-5H-benzo[7]annulene-3-carboxylic acid hydrochloride] | 97 | 0.6
Cc1cc(F)ccc1C1=C(c2cc(F)c(C=C3CN(CCCF)C3)cc2F)c2ccc(C(=O)O)cc2CCC1.Cl [Example 65, 9-(2,5-difluoro-4-((1-(3-fluoropropyl)azetidin-3-ylidene)methyl)phenyl)-8-(4-fluoro-2-methylphenyl)-6,7-dihydro-5H-benzo[7]annulene-3-carboxylic acid hydrochloride] | 95 | 0.3
O=C(O)c1ccc2c(c1)CCCC(c1cccc(C(F)(F)F)c1F)=C2c1ccc(C=C2CN(CCCF)C2)cc1 [Example 56, 8-(2-fluoro-3-(trifluoromethyl)phenyl)-9-(4-((1-(3-fluoropropyl)azetidin-3-ylidene)methyl)phenyl)-6,7-dihydro-5H-benzo[7]annulene-3-carboxylic acid] | 93 | 0.2
